Source: PMC12406253, “Exploration of the Neuromodulatory Properties of Fyn and GSK-3β Kinases Exploiting 7‑Azaindole-Based Inhibitors” (Journal of Medicinal Chemistry, 2025)

Key:
[1] = test system: primary rat cerebellar granule neurons (CGNs); assay: Neuroprotection in CGNs, serum/potassium deprivation (MTT); format: cell-based; details: 5, 10, and 25 μM, 48 h
Source text: First, we evaluated the neuroprotective properties of the selected compounds in the same cell line, once the expression of Fyn and GSK-3β in this cellular model was verified (Figure S2), after a serum/potassium deprivation experiment, which simulates physiological aging (and mortality), triggering around 20% of cell death. In particular, 7 days differentiated CGNs were exposed to serum-free BME medium with low extracellular concentration of K^+ ions and treated at selected doses (i.e., 5, 10, and 25 μM) of compounds for 48 h. Neuronal viability was then determined with an MTT assay.
To evaluate the neuroprotective effect of our compounds, we tested increasing concentrations (5 μM, 10 μM, 25 μM) of compounds of interest in differentiated CGNs switched to serum-free BME medium with 5 mM KCl (serum-potassium deprivation) for 48 h to mimic in vitro the naturally occurring death of granule cells. Neuroprotection was evaluated through MTT assay.
For MTT assay, thiazolyl blue was added to the culture medium at a final concentration of 0.1 mg/mL. Following a 20 min incubation at 37 °C in the dark, the MTT precipitate was dissolved in 0.1 M Tris–HCl pH 7.5 buffer containing 5% Triton X-100 (all from Sigma-Aldrich) and absorbance was read at 570 nm in a microplate spectrophotometric reader (Bio-Rad).

[2] = test system: neurospheres (NPCs from the subventricular zone); assay: Neurosphere differentiation, immunofluorescence of DCX, GFAP, OLIG2; format: cell-based, mice; details: 1 μM; 7 days
Source text: Lastly, we move forward to evaluate the neuromodulatory profile of selected compounds that involves the capability to polarize the spontaneous differentiation of neurospheres, which potentially can maturate in neurons or macroglia, such as astrocytes and oligodendrocytes. Modulating NPC differentiation is especially relevant under neurodegenerative conditions as it could offer an intriguing opportunity to achieve polyhedric therapeutic effects. Importantly, neuronal differentiation may help to counteract the progressive neuronal loss, while promoting oligodendrocyte phenotype could support remyelination and neuronal function and the astrocytic polarization may aid to foster a neuroprotective profile. Particularly, after 7 days of treatment at 1 μM, in the same experimental conditions previously reported, cells were fixed and stained with different antibody markers such as doublecortin (DCX) for the immature neurons, glial fibrillary acidic protein (GFAP) for astrocytes, and oligodendrocyte transcription factor 2 (OLIG2) for oligodendrocyte precursors for immunofluorescence analysis (Figure a). […] By driving the maturation of astrocytes, compounds 41 and 43 could exert neuroprotection through multiple mechanisms, including the secretion of neurotrophic factors, enhancement of antioxidant defenses, regulation of water balance, ion homeostasis, and glutamate buffering and recycling. Furthermore, astrocytes support the integrity of the blood–brain barrier (BBB) and aid in the refinement of neural networks via synaptic pruning, further reinforcing their role in preserving brain function and structure.
NSCs were initially obtained by SVZ microdissection of 6 months-old C57BL/6N wild-type male mice (Mus musculus) and routinely cultured in suspension in DMEM-F12 (Gibco; ThermoFisher Scientific, Waltham, MA, USA) supplemented with 2 mM glutamine, 10 μg/mL insulin from bovine pancreas (Sigma-Aldrich; St Louis, MO, USA), 20 ng/mL epidermal growth factor (EGF; PeproTech EC, London, UK), 20 ng/mL fibroblast growth factor-2 (FGF2; PeproTech), 1% N2 (ThermoFisher Scientific), 1% B27 (ThermoFisher Scientific), 10 units/mL penicillin, and 10 μg streptomycin.
To assess the effect of compounds of interest in NSCs differentiation, 30 spheres were plated on 13 mm glass coverslips, previously coated with Matrigel matrix (Corning; New York, USA), in complete DMEM F-12 medium, and treated with 1 μM of compounds of interest. After 7DIV, neurospheres were fixed for 20 min with 4% PFA in PBS 0.1% pH 7.4. Fixed neurospheres were permeabilized in 0.1% Triton/PBS and nonspecific sites were blocked for 1 h with 0.1% Triton/PBS and 5% normal goat serum (Sigma-Aldrich; St Louis, MO, USA). Cells were then incubated overnight at 4 °C with the following primary antibodies: Anti-Doublecortin DCX (Abcam, Cambridge, UK), GFAP (Dakopatts), OLIG2 (Santa Cruz Biotechnology), 1:500 dilution in 0.1% Triton/PBS with 2% normal goat serum. After 3 washes in 0.1% Triton/PBS, specific secondary antibodies were added for 2 h at RT in the dark: Donkey anti-Mouse IgG Alexafluor 555 (Abcam, Cambridge, UK), Goat anti-Rabbit IgG Alexafluor 555 (Abcam, Cambridge, UK), 1:1000 dilution in 0.1% Triton/PBS with 2% normal goat serum. Following 3 washes in 0.1% Triton/PBS, nuclei were stained with DAPI (2 μg/mL, Sigma-Aldrich) for 5 min. Glass coverslips were mounted by using Ultracruz Aqueous Mounting Medium with DAPI (Santa Cruz Biotechnology). Neurospheres confocal images were obtained with a Nikon EZ-C1 microscope (60× objective) and the z-stack function (1024 steps and 1 μm thickness layers; 40 total stacks). 3D image reconstruction was performed by using Fiji ImageJ2 software, z-project plugin, and selecting the sum stacks’ function. Fluorescence intensity index was estimated as the ratio of markers’ positive cells intensity/total cells fluorescence intensity stained with DAPI per ROI.

AMPKα1(h) = target: T1, AMPKα1(h) (Homo sapiens, UniProt Q13131); assay: Eurofins KinaseProfiler radiometric kinase assay; format: biochemical; details: read-out: AMPKα1(h) % Residual activity
T1 construct: purchased Eurofins KinaseProfiler (Eurofins Cerep)

CDK1/cyclinB(h) = target: T2, CDK1/cyclinB(h) (Homo sapiens, UniProt P06493); assay: Eurofins KinaseProfiler radiometric kinase assay; format: biochemical; details: read-out: CDK1/cyclinB(h) % Residual activity
T2 construct: purchased Eurofins KinaseProfiler (Eurofins Cerep)

IKKα(h) = target: T3, IKKα(h) (Homo sapiens, UniProt O15111); assay: Eurofins KinaseProfiler radiometric kinase assay; format: biochemical; details: read-out: IKKα(h) % Residual activity
T3 construct: purchased Eurofins KinaseProfiler (Eurofins Cerep)

JAK2(h) = target: T4, JAK2(h) (Homo sapiens, UniProt O60674); assay: Eurofins KinaseProfiler radiometric kinase assay; format: biochemical; details: read-out: JAK2(h) % Residual activity
T4 construct: purchased Eurofins KinaseProfiler (Eurofins Cerep)

MEK1(h) = target: T5, MEK1(h) (Homo sapiens, UniProt Q02750); assay: Eurofins KinaseProfiler radiometric kinase assay; format: biochemical; details: read-out: MEK1(h) % Residual activity
T5 construct: purchased Eurofins KinaseProfiler (Eurofins Cerep)

Mnk2(h) = target: T6, Mnk2(h) (Homo sapiens, UniProt Q9HBH9); assay: Eurofins KinaseProfiler radiometric kinase assay; format: biochemical; details: read-out: Mnk2(h) % Residual activity
T6 construct: purchased Eurofins KinaseProfiler (Eurofins Cerep)

MST1(h) = target: T7, MST1(h) (Homo sapiens, UniProt Q13043); assay: Eurofins KinaseProfiler radiometric kinase assay; format: biochemical; details: read-out: MST1(h) % Residual activity
T7 construct: purchased Eurofins KinaseProfiler (Eurofins Cerep)

mTOR(h) = target: T8, mTOR(h) (Homo sapiens, UniProt P42345); assay: Eurofins KinaseProfiler radiometric kinase assay; format: biochemical; details: read-out: mTOR(h) % Residual activity
T8 construct: purchased Eurofins KinaseProfiler (Eurofins Cerep)

Pim-1(h) = target: T9, Pim-1(h) (Homo sapiens, UniProt P11309); assay: Eurofins KinaseProfiler radiometric kinase assay; format: biochemical; details: read-out: Pim-1(h) % Residual activity
T9 construct: purchased Eurofins KinaseProfiler (Eurofins Cerep)

PKCα(h) = target: T10, PKCα(h) (Homo sapiens, UniProt P17252); assay: Eurofins KinaseProfiler radiometric kinase assay; format: biochemical; details: read-out: PKCα(h) % Residual activity
T10 construct: purchased Eurofins KinaseProfiler (Eurofins Cerep)

T9 sequence (P11309 whole entry): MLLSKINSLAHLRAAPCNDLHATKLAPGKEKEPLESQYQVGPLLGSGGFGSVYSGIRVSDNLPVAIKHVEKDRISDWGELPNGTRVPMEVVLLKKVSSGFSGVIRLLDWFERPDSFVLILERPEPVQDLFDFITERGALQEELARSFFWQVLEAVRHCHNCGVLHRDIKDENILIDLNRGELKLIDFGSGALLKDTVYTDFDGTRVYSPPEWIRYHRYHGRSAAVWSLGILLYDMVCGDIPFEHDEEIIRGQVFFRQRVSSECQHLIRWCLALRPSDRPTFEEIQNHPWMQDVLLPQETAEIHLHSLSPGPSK
T7 sequence (Q13043 whole entry): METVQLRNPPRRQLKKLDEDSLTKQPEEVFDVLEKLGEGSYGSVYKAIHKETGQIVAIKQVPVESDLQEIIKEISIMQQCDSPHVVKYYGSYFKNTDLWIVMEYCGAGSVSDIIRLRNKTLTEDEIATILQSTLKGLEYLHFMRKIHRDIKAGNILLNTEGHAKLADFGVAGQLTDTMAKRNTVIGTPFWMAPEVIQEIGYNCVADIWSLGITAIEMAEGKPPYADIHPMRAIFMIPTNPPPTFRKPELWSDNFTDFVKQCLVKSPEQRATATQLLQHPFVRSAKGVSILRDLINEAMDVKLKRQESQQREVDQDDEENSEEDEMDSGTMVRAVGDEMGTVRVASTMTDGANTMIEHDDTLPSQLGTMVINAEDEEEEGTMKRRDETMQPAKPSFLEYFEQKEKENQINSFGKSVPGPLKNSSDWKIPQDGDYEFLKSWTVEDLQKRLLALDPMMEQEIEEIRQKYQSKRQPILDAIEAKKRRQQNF
T1 sequence (Q13131 whole entry): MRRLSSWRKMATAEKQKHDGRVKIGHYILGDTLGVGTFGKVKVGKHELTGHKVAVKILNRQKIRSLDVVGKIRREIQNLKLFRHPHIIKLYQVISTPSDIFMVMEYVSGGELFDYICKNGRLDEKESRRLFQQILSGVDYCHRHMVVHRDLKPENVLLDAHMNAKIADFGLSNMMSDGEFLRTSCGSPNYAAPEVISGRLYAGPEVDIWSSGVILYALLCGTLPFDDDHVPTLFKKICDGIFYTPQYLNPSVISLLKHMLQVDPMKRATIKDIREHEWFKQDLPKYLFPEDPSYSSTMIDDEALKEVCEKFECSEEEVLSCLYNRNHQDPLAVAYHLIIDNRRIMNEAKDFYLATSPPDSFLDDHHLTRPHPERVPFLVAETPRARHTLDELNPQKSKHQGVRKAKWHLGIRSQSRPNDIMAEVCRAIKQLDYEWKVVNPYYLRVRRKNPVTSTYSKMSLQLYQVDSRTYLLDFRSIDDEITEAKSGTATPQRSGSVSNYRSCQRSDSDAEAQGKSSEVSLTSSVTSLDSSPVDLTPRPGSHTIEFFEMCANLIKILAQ
T1 sequence (Q9Y478 whole entry partner): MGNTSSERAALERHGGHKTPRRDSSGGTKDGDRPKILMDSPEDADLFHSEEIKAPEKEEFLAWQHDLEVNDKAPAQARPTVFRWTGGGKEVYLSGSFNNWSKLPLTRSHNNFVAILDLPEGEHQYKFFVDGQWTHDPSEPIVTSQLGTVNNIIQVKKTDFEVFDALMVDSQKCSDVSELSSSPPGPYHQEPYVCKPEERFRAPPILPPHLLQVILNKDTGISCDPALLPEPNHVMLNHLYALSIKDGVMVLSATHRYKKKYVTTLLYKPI
T1 sequence (P54619 whole entry partner): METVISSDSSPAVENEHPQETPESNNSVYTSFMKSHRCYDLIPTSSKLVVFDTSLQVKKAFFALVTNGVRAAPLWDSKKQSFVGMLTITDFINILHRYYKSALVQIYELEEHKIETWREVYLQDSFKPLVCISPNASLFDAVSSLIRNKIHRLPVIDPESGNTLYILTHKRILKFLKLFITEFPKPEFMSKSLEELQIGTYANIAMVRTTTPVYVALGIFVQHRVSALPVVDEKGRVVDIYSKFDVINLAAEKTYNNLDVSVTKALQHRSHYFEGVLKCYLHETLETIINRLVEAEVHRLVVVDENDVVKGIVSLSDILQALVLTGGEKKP
T3 sequence (O15111 whole entry): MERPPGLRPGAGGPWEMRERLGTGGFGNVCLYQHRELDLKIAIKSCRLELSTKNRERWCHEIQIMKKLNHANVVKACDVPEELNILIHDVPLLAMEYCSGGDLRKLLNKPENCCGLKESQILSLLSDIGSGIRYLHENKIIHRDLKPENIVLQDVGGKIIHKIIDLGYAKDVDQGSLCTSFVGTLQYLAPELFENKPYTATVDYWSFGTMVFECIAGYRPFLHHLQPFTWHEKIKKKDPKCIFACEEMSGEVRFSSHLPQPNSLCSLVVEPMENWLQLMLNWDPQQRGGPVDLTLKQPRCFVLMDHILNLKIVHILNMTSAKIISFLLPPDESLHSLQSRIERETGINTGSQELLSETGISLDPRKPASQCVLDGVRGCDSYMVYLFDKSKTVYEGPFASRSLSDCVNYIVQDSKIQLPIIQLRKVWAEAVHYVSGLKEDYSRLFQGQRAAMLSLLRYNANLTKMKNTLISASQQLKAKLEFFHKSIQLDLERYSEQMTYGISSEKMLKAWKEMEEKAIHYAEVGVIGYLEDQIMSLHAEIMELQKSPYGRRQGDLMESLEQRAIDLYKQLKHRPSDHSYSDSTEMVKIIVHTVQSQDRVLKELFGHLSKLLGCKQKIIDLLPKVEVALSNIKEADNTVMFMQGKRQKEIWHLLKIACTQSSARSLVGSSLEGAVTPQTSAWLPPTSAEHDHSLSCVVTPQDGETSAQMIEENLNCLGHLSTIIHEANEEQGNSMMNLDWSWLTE
T4 sequence (O60674 whole entry): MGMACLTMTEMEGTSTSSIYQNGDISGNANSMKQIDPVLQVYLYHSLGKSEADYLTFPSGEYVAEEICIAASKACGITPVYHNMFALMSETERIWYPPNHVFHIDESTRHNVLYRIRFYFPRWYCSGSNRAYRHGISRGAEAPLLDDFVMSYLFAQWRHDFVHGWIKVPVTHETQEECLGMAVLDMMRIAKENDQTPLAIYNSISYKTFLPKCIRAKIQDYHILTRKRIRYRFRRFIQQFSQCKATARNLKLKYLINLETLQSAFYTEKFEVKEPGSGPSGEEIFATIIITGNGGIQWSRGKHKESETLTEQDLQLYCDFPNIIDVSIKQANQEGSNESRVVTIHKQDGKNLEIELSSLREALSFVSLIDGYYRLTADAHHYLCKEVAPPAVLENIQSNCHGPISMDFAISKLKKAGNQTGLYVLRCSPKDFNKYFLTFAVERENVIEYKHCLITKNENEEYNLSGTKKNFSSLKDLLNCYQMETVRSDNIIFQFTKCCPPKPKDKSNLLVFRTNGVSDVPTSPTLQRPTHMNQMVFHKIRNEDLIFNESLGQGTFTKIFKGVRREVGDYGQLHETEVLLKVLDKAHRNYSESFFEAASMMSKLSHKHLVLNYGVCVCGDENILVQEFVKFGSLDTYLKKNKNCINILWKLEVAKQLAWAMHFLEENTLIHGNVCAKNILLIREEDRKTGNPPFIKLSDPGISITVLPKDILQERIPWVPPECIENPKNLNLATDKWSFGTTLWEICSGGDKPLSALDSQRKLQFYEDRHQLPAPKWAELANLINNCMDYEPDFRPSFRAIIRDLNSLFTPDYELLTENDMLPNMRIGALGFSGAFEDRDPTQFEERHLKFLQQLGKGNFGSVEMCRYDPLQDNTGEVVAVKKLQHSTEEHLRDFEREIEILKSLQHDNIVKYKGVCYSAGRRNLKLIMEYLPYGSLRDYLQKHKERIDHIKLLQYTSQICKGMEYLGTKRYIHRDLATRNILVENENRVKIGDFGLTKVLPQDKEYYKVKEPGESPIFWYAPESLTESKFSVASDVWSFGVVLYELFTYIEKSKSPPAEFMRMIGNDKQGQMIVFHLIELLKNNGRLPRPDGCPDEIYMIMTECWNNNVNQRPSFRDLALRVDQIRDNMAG
T5 sequence (Q02750 whole entry): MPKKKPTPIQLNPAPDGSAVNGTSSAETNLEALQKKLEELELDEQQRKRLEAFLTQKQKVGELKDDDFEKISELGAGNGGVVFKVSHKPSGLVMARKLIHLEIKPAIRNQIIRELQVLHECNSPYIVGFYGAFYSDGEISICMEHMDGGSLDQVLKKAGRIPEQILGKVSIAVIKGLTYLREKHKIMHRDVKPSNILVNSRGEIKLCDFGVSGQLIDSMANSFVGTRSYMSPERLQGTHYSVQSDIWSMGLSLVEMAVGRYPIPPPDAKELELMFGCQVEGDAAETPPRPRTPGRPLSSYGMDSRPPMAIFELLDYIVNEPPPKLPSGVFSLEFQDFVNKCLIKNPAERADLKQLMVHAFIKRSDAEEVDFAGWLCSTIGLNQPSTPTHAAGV

remaining activity at 10 µM (AMPKα1(h))	remaining activity at 10 µM (CDK1/cyclinB(h))	remaining activity at 10 µM (IKKα(h))	remaining activity at 10 µM (JAK2(h))	remaining activity at 10 µM (MEK1(h))	remaining activity at 10 µM (Mnk2(h))	remaining activity at 10 µM (MST1(h))	remaining activity at 10 µM (mTOR(h))	remaining activity at 10 µM (Pim-1(h))	remaining activity at 10 µM (PKCα(h))	Structure (SMILES)	Neuroprotection on CGNs (cell viability after serum/potassium deprivation) [1]	Differentiation toward astrocytes (GFAP) [2]	Differentiation toward oligodendrocytes (OLIG2) [2]
54%	27%	96%	26%	61%	17%	16%	86%	20%	66%	Br.Cc1sc(NCc2ccccc2)nc1-c1c[nH]c2ncc(Br)cc12 [Compound 41, N-Benzyl-4-(5-bromo-1H-pyrrolo[2,3-b]pyridin-3-yl)-5-methylthiazol-2-amine Hydrobromide]	mitigate the physiological senescence and mortality rate	notably directed the differentiation toward the astrocytic phenotype	markedly deleterious for oligodendrocytes
60%	20%	99%	46%	35%	27%	14%	97%	55%	28%	Br.Cc1sc(NCc2ccnc(Cl)c2)nc1-c1c[nH]c2ncccc12 [Compound 43, N-((2-Chloropyridin-4-yl)methyl)-5-methyl-4-(1H-pyrrolo[2,3-b]pyridin-3-yl)thiazol-2-amine Hydrobromide]	mitigate the physiological senescence and mortality rate	notably directed the differentiation toward the astrocytic phenotype	this effect was mitigated
